From BindingDB's records for doi:10.1111/j.1600-0773.1998.tb01469.x (Case Western Reserve University, 1998)
Several values for one entry are separate records, joined by “and”; a condition that tells them apart may be missing. Equal values may be shown once.

Target: T1, Muscarinic acetylcholine receptor M4 (Homo sapiens, UniProt P08173)
T1 sequence (P08173 whole entry): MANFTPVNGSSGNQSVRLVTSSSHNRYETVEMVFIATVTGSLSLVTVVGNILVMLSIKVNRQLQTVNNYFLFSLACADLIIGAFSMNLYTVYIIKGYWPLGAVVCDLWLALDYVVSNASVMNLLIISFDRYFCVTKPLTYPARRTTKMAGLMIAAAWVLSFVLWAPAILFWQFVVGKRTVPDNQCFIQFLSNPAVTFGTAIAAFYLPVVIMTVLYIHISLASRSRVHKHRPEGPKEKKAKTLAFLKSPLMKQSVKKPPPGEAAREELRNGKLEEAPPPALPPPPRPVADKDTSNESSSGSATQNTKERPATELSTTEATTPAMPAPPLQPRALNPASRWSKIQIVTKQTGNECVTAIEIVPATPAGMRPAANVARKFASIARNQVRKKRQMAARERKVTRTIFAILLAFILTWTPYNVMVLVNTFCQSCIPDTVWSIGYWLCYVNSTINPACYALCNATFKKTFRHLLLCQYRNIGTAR

| Structure (SMILES) | Ki |
| --- | --- |
| O[Si](CCCN1CCCCC1)(c1ccccc1)C1CCCCC1 (configuration not stated) [HHSiD] | 4.16 nM and 16.6 nM |
| COc1ccccc1CNCCCCCCNCCCCCCCCNCCCCCCNCc1ccccc1OC [METHOCTRAMINE] | 66.1 nM and 72.4 nM |
